Assay results taken from patent US20260207626A1, “SYNTHETIC TRITERPENOIDS AND COMPOSITIONS THEREOF IN WEIGHT MANAGEMENT, SKELETAL MUSCLE FUNCTION, AND APPETITE SUPPRESSION” (The Board of Regents of the University of Texas System, priority 2022, published 2026).
Entries after “also recorded” stand apart in the source; their conditions may differ.

Legend:
[1] = Serum glucose and insulin, oral glucose tolerance test (OGTT) in mice fed LFD or HFD with or without CDDO-EA; type: in vivo, C57B16/J mice
Method: Data were statistically analyzed by One-Way ANOVA, Two-Way ANOVA with repeated measures, or Two-Way ANOVA with Tukey's multiple comparison test. Throughout the collection of blood samples, OGTTs, and measurement of bodyweight, mice were unrestrained and awake. Blood samples were collected via tail snip before start of experimental feeding and then every two weeks. Oral glucose tolerance tests (OGTTs) were performed after the six-week experimental feeding, and blood samples were collected via tail snip during the OGTT. For OGTT, mice were given 2 g of glucose/kg of body weight by gavage after a five hour fast (36). Glucose levels were measured using a glucometer (Contour), and insulin concentrations were measured using an ELISA (Mercodia). Mice were weighed once a week. Glucose and insulin serum levels were measured every two weeks.
Glucose and insulin levels were measured in the subject animals to determine if prevention of obesity by CDDO-EA in a high fat diet (HFD) chow regimen and in a low fat diet (LFD) regimen coincided with a reduction in hyperglycemia and hyperinsulinemia.

NF-κB = NF-κB luciferase reporter assay in L6-GLUT4myc myotubes; type: cell-based, rat; details: 500 nM CDDO-EA 1 hr then 100 ng/ml LPS 6 hours
Method: To determine the effects of CDDO-EA on LPS-induced NF-κB transcriptional activity in L6-GLUT4myc myotubes, a luciferase reporter under the control of a promoter containing NF-κB transcription binding sites was used.
Luciferase assay: L6-GLUT4myc myoblasts were transfected with 2 μg of phosphorylated NF-κB-MetLuc2-Reporter plasmid as described previously. After transfection, cells were plated onto a 24-well dish (1.5×10^5 cells/well) and pre-treated with CDDO-EA for 1 h. Myotubes were then stimulated with LPS 100 ng/ml (E. coli 0111: B4, Sigma Aldrich) for 6 h, and luciferase activity was measured using the Ready-To-Glow™ NF-κB Secreted Luciferase Reporter System as described.

TNF-α [2] = assay: Quantitative RT-PCR of LPS-induced TNF-α mRNA in L6-GLUT4myc myotubes; type: cell-based, rat; details: 500 nM CDDO-EA 1 hr then 100 ng/ml LPS 1 hr
Method: Quantitative RT-PCR: L6-GLUT4myc myoblasts (4×10^4 cell/ml, 2 ml/well) were seeded on a 6-well plate and differentiated into myo-tubes with differentiation medium for 7 days. Myotubes were pre-treated with CDDO-EA 500 nM for 1 h followed by LPS 100 ng/ml (E. coli O111: B4, Sigma Aldrich) treatment for 1 h. RNA was isolated from treated myotubes using TRIzol reagent (Ambion) according to the manufacturer's instructions. Validated RT-PCR primers specific for rat TNF-α (Assay ID: Rn99999017_m1) and rat MCP-1 (Assay ID: Rn00580555_m1), or rat GAPDH (Assay ID: Rn99999916_s1) were used to quantify mRNA levels using TaqMan RNA-to-CT 1-Step Kit (Thermo Fisher Scientific), Real-time PCR was carried out using an AB7900HT Fast Real-Time PCR System (Applied Biosystems), and MCP-1 and TNF-α levels were calculated using the ΔΔCT method according to the manufacturer's instructions.

THP-1 macrophages = assay: Bio-Plex Pro human 17-plex cytokine/chemokine panel in THP-1 macrophages exposed to CDDO-EA and LPS; type: cell-based
Method: THP-1 monocytes were plated in 24-well plate at 15×10^4 cells/0.5 ml/well in growth medium plus 100 ng/ml PMA into each well and cultured at 37° C. with 5% CO2 incubator for 48 h for differentiation to macrophages. […] Supernatants were collected and stored at −80° C. until analysis. Cytokines and chemokines were measured and quantified using a Bio-Plex Pro human cytokines group I, 17-plex ELISA Kit (Bio-Rad) according to the manufacturer's instructions.

[3] = Energy expenditure (Promethion Metabolic Analyzer) in mice fed HFD with or without CDDO-EA, LFD or HFD pair-fed; type: in vivo, C57BL/6J mice; details: HFD + CDDO-EA (0.04%), days 3-9
Method: FIG. 22A and FIG. 22B. […] FIG. 22A. EE was measured 289 times in a 24-hour cycle at each day from 3-9 days of the experimental feeding. FIG. 22B. Average EE for days 3-9 of experimental feeding. C57BL/6J mice were fed a HFD with or without incorporation of CDDO-EA (diet containing 0.04% CDDO-EA) or LFD or HFD pair-fed for 6 weeks (n=5).
C57BL/6J mice (6-8 weeks old, male, strain #000664, The Jackson Laboratory) were divided into four (4) groups (i)-(iv)): (i) ad libitum Low fat caloric content (LFD-10% of total calories from fat caloric content, #TD.08806, Envigo), (ii) ad libitum HFD (60% of total calories from fat caloric content, #TD.06414, Envigo), (iii) HFD+CDDO-EA (diet containing 0.04% CDDO-EA), and (iv) HFD pair-fed to food intake of mice fed HFD+CDDO-EA. The study was for 6 weeks (42 days) (performed at Vanderbilt Metabolic Mouse Phenotyping Center (VMMPC)). Mice were singly housed in a Promethion Metabolic Analyzer and were monitored continuously for 7 days to assess feeding and EE.

TNF-α [4] = assay: RT-PCR of PA-induced TNF-α gene expression in L6-GLUT4myc myotubes; type: cell-based, rat; details: CDDO-EA 500 nM 1 h then PA 400 μM 6 h
Method: L6-GLUT4myc myotubes were pretreated with CDDO-EA (500 nM, 1 h) and treated PA (400 μM, 6 h). TNF-α and MCP-1 gene expression were measured by RT-PCR. Data are represented as +SEM *P<0.05 vs. control, ^#P<0.05 vs. control. * P<0.05 vs. LPS, $P<0.05 vs. PA. (One-Way ANOVA).

[5] = 500 nM CDDO-EA for 1 hr then 100 ng/ml LPS for 6 hr

## CCNC(=O)[C@]12CCC(C)(C)C[C@H]1C1C(=O)C=C3[C@@]4(C)C=C(C#N)C(=O)C(C)(C)[C@@H]4CC[C@@]3(C)[C@]1(C)CC2 (stereo partly drawn) [CDDO-EA, (4aS,6aR,6bS,8aR,12aS,14bS)-11-cyano-N-ethyl-2,2,6a,6b,9,9,12a-heptamethyl-10,14-dioxo-1,3,4,5,6,6a,6b, 7,8,8a,9,10,12a, 14,14a, 14b-hexadecahydropicene-4a (2H)-carboxamide]
[1]; HFD + CDDO-EA, after 6 weeks (FIG. 6B)
  OGTT serum glucose: prevented increased serum glucose; also recorded: significantly decrease to glucose levels before the HFD experimental feeding; also recorded: prevents glucose intolerance
[1]; HFD + CDDO-EA, after 6 weeks (FIG. 7B)
  OGTT serum insulin: prevented increased serum glucose (FIG. 6B) and insulin concentrations; also recorded: insulin levels did not increase significantly; also recorded: prevents hyperinsulinemia
[1]; HFD with CDDO-EA, weeks 0-6 (FIG. 13A)
  serum glucose levels during feeding: did not increase throughout the six-week feeding; also recorded: prevents glucose intolerance
[1]; HFD with CDDO-EA, weeks 0-6 (FIG. 13B)
  serum insulin levels during feeding: remained significantly higher in mice fed only a HFD compared to mice fed a HFD with CDDO-EA; also recorded: prevents hyperinsulinemia
[1]; LFD + CDDO-EA, after 6 weeks (FIG. 6A)
  serum glucose levels: no significant increase or decrease in serum glucose levels; also recorded: did not affect glucose and insulin levels of mice fed LFD with CDDO-EA
[1]; LFD + CDDO-EA, after 6 weeks (FIG. 7A)
  insulin levels: overlap with the insulin levels before experimental feeding; also recorded: did not affect glucose and insulin levels of mice fed LFD with CDDO-EA
NF-κB
  LPS-induced NF-κB transcriptional (luciferase) activity: prevented the promoter activity of NF-κB; also recorded: significantly inhibited the LPS-induced NF-κB activity; also recorded: blocks NF-κB transcriptional activity
TNF-α [2]
  LPS-induced TNF-α mRNA expression: lowered LPS-induced mRNA levels of TNF-α and MCP-1; also recorded: blocked the mRNA expression of LPS-induced TNF-α and MCP-1; also recorded: reduced LPS-induced TNF-α and MCP-1 gene expression levels; also recorded: inhibits LPS-inducted TNF-α and MCP-1 gene expression
THP-1 macrophages; 500 nM CDDO-EA 1 hour then 100 ng/ml LPS 6 hours
  LPS-induced IL-1β, IL-6 and MCP-1 production: primarily inhibited LPS-induced IL-1B, IL-6 and MCP-1 production; also recorded: blocks LPS induced IL-1β, IL-6, and MCP-1 secretion
THP-1 macrophages; 500 nM CDDO-EA alone, no LPS
  IFN-γ: 24.78 ± 20.55 pg/mL
  IL-1β: 2.19 ± 1.49 pg/mL
  IL-4: 0.21 ± 0.12 pg/mL
  IL-6: 0.12 ± 0.02 pg/mL
  IL-8: 6339.67 ± 1535.18 pg/mL
  IL-17: 22.72 ± 9.47 pg/mL
  MCP-1: 2.11 ± 1.35 pg/mL
  MIP-1β: 3763.83 ± 1229.25 pg/mL
  TNF-α: 128.33 ± 38.63 pg/mL
THP-1 macrophages; [5]
  G-CSF: 10.72 ± 4.71 pg/mL
  IFN-γ: 114.38 ± 5.43 pg/mL
  IL-1β: 64.65 ± 17.12 pg/mL
  IL-2: 4.09 ± 1.51 pg/mL
  IL-4: 1.55 ± 0.18 pg/mL
  IL-6: 12.67 ± 5.50 pg/mL
  IL-8: 9691.33 ± 1268.42 pg/mL
  IL-12: 2.00 ± 1.00 pg/mL
  IL-17: 40.16 ± 8.13 pg/mL
  MCP-1: 11.05 ± 1.65 pg/mL
  MIP-1β: 11212.50 ± 877.01 pg/mL
  TNF-α: 8237.33 ± 1137.80 pg/mL
[3]
  energy expenditure (EE): does not affect EE; also recorded: does not affect energy expenditure
TNF-α [4]
  PA-induced TNF-α gene expression: inhibits PA-induced NF-κB activation and MCP-1 and TNF-α gene expression; also recorded: blocks TNF-α and MCP-1 gene expression
